Laboratory results as given in US8258116B2, “Combination therapy for the treatment of HCV infection” (Vertex Pharmaceuticals Incorporated, priority 2007, dated 2012).
Where two headings read alike, the source gives them in different places.

Columns and labels:
[1] = system: HCV replicon cells (wild-type clone 24-2, Huh-7); test: 2-day Replicon assay with bDNA quantitation, checkerboard combination (Bliss independence / MacSynergy); type: cell-based; conditions: Hepatitis C virus, Huh-7, 48 h, polymerase inhibitor in the checkerboard experiment with VX-950, read-out: Polymerase Inhibitor IC50
Protocol: Huh-7 cells were propagated in Dulbecco's modified Eagle's medium (DMEM, JRH Biosciences, Lenexa, Kans.) supplemented with 10% heat-inactivated FBS (fetal bovine serum), 2 mM L-glutamine, and nonessential amino acids (JRH). The cells were transfected with an in vitro transcribed HCV replicon RNA identical to replicon 1377neo/NS3-3′/wt as described by Lohmann et al. (1999). Stable cell clones were selected and maintained in the presence of 250 μg/mL G418 (Invitrogen, Carlsbad, Calif.). One of the clones, 24-2, was used as the wild-type in the subsequent HCV replicon assays for combination studies. The HCV NS3 protease variant replicons were constructed in the background of the mADE wild-type replicon as described previously [Chao Lin et al., “In Vitro Resistance Studies of Hepatitis C Virus Serine Protease Inhibitors, VX-950 and BILN 2061: Structural Analysis Indicates Different Resistance Mechanisms,” Journal of Biological Chemistry, 279(17); pp. 17508-17514 (2004)]. The replicon cells were propagated in DMEM supplemented with 10% FBS, 2 mM L-glutamine, nonessential amino acids, and 250 μg/mL G418. The cells were split twice per week in fresh media upon reaching confluence. There are approximately 200-300 copies of HCV RNA per 24-2 replicon cell.
(§1) HCV replicon RNA from cells was measured using the Quantigene Discover XL kit (Panomics Inc., Fremont Calif.) as per the manufacturer's instructions. Briefly, compound-treated replicon cells were lysed and immobilized on to capture plates using HCV specific oligonucleotides (designed based on the 5′ UTR region of HCV 1b genome sequence AJ238799 in the GenBank database) over night and the relative amounts of captured RNA was measured using oligonucleotide probe sets as per the manufacturer's instructions.
(§2) On the day prior to the assay, 10,000 replicon cells were plated per well of a 96-well plate and allowed to attach and grow overnight in DMEM (Invitrogen, Carlsbad, Calif.) supplemented with 10% heat-inactivated FBS (JRH Biosciences, Lenexa, Kans.), 2 mM L-glutamine (Invitrogen), nonessential amino acids (Invitrogen) and 250 μg/ml G418 (Invitrogen). Next day, the medium was removed and antiviral agents that were serially diluted in DMEM containing 2% FBS and 0.5% DMSO (Sigma Chemical Co., St. Louis, Mo.) without G418, was added. The replicon cells were incubated with the antiviral agents for 48 h. HCV replicon RNA from cells was measured using the Quantigene Discover XL kit (Panomics Inc., Fremont Calif.) as per the manufacturer's instructions. Briefly, compound-treated replicon cells were lysed and immobilized onto capture plates using HCV specific oligonucleotides overnight and the relative amounts of captured RNA was measured using oligonucleotide probe sets as per the manufacturer's instructions. Unless indicated otherwise, each data point represents the average of three replicates. The IC50 is the concentration of the compound at which the HCV replicon RNA level in cells is reduced by 50% as compared to the untreated replicon cell controls. To monitor the effect of compounds on cell proliferation or cell viability, replicon cells were treated with serially diluted compounds for 48 h, after which cell viability was determined using a CellTiter Glo assay (Promega, Madison, Wis.). Each CC50 is derived from at least two replicates and is the concentration of the compound at which the number of viable cells is reduced by 50% as compared to untreated cell controls. The IC50 and CC50 was determined using 4-parameter curve fitting in the SoftMax Pro program (Molecular Devices, Sunnyvale, Calif.).
The effects of drug-drug combinations were evaluated using the Bliss independence model [W. R. Greco et al., “The search for synergy: a critical review from a response surface perspective,” Pharmacol. Rev., 47, pp. 331-385 (1995)]. The experimental data were analyzed by using MacSynergy, a three-dimensional analytical method developed by Prichard and Shipman [M. N. Prichard and C. […]

[2] = system: HCV NS3 protease variant replicon R155K; test: microbe, parasite or virus in culture; type: cell-based; conditions: for IC50: Hepatitis C virus; for Fold Change: R155K, ratio of mutant IC50 to Wild type IC50 for the same inhibitor
Protocol: (§3) Huh-7 cells were propagated in Dulbecco's modified Eagle's medium (DMEM, JRH Biosciences, Lenexa, Kans.) supplemented with 10% heat-inactivated FBS (fetal bovine serum), 2 mM L-glutamine, and nonessential amino acids (JRH). The cells were transfected with an in vitro transcribed HCV replicon RNA identical to replicon 1377neo/NS3-3′/wt as described by Lohmann et al. (1999). Stable cell clones were selected and maintained in the presence of 250 μg/mL G418 (Invitrogen, Carlsbad, Calif.). […] The HCV NS3 protease variant replicons were constructed in the background of the mADE wild-type replicon as described previously [Chao Lin et al., “In Vitro Resistance Studies of Hepatitis C Virus Serine Protease Inhibitors, VX-950 and BILN 2061: Structural Analysis Indicates Different Resistance Mechanisms,” Journal of Biological Chemistry, 279(17); pp. 17508-17514 (2004)]. The replicon cells were propagated in DMEM supplemented with 10% FBS, 2 mM L-glutamine, nonessential amino acids, and 250 μg/mL G418. The cells were split twice per week in fresh media upon reaching confluence. There are approximately 200-300 copies of HCV RNA per 24-2 replicon cell.
as §1, §2
(§4) The sensitivity of NS3 protease variants to ribavirin and interferon was assessed in a 2-Day HCV Replicon IC50 Assay.

[3] = system: HCV NS3 protease variant replicon V36M; test: microbe, parasite or virus in culture; type: cell-based; conditions: for IC50: Hepatitis C virus; for Fold Change: V36M, ratio of mutant IC50 to Wild type IC50 for the same inhibitor
Protocol: as §3, §1, §2, §4

[4] = system: HCV NS3 protease variant replicon V36M+R155K; test: microbe, parasite or virus in culture; type: cell-based; conditions: for Fold Change: V36M-R155K, ratio of mutant IC50 to Wild type IC50 for the same inhibitor
Protocol: as §3, §1, §2, §4

[5] = system: HCV NS3 protease variant replicon T54A; test: microbe, parasite or virus in culture; type: cell-based; conditions: for IC50: Hepatitis C virus; for Fold Change: T54A, ratio of mutant IC50 to Wild type IC50 for the same inhibitor
Protocol: as §3, §1, §2, §4

[6] = system: HCV NS3 protease variant replicon V36A; test: microbe, parasite or virus in culture; type: cell-based; conditions: for IC50: Hepatitis C virus; for Fold Change: V36A, ratio of mutant IC50 to Wild type IC50 for the same inhibitor
Protocol: as §3, §1, §2, §4

[7] = system: HCV NS3 protease variant replicon A156T; test: 2-Day HCV Replicon IC50 Assay, A156T; type: cell-based; conditions: for Fold Change: A156T, ratio of mutant IC50 to Wild type IC50 for the same inhibitor; for IC50: Hepatitis C virus, read-out: Avg. IC50 ± STDEV
Protocol: as §3, §1, §2, §4

[8] = system: HCV replicon Wild Type (mADE); test: 2-Day HCV Replicon IC50 Assay, wild type replicon; type: cell-based; conditions: for IC50: Hepatitis C virus; for Fold Change: ratio of IC50 to Wild type IC50 for the same inhibitor
Protocol: as §3, §1, §2, §4

[9] = system: HCV NS3 protease variant replicon A156V; test: 2-Day HCV Replicon IC50 Assay, A156V; type: cell-based; conditions: for Fold Change: A156V, ratio of mutant IC50 to Wild type IC50 for the same inhibitor; for IC50: Hepatitis C virus, read-out: Avg. IC50 ± STDEV
Protocol: as §3, §1, §2, §4

[10] = system: HCV NS3 protease variant replicon A156T; conditions: A156T replicon versus wild-type (Lin et al., 2005); cited from earlier work
[11] = system: HCV NS3 protease variant replicon V36M-R155T; test: microbe, parasite or virus in culture; type: cell-based; conditions: for Fold Change: V36M-R155T, ratio of mutant IC50 to Wild type IC50 for the same inhibitor
Protocol: as §3, §1, §2, §4

[12] = system: HCV NS3 protease variant replicon R155M; test: microbe, parasite or virus in culture; type: cell-based; conditions: for Fold Change: R155M, ratio of mutant IC50 to Wild type IC50 for the same inhibitor
Protocol: as §3, §1, §2, §4

[13] = system: HCV NS3 protease variant replicon V36A-R155K; test: microbe, parasite or virus in culture; type: cell-based; conditions: for Fold Change: V36A-R155K, ratio of mutant IC50 to Wild type IC50 for the same inhibitor
Protocol: as §3, §1, §2, §4

[14] = system: HCV NS3 protease variant replicon R155T; test: microbe, parasite or virus in culture; type: cell-based; conditions: for Fold Change: R155T, ratio of mutant IC50 to Wild type IC50 for the same inhibitor
Protocol: as §3, §1, §2, §4

[15] = system: HCV NS3 protease variant replicon V36A-R155T; test: microbe, parasite or virus in culture; type: cell-based; conditions: for Fold Change: V36A-R155T, ratio of mutant IC50 to Wild type IC50 for the same inhibitor
Protocol: as §3, §1, §2, §4

[16] = system: HCV NS3 protease variant replicon A156V; conditions: A156V replicon versus wild-type (Lin et al., 2005); cited from earlier work
[17] = Table 8, Wild Type replicon, read-out: Avg. IC50 ± STDEV
[18] = Hepatitis C virus, read-out: Avg. IC50

| Compound | IC50 [1] [nM] | IC50 ([2]; read-out: Avg. IC50 ± STDEV) [nM] | Fold Change [2] | IC50 ([3]; read-out: Avg. IC50 ± STDEV) [nM] | Fold Change [3] | Fold Change [4] | IC50 ([5]; read-out: Avg. IC50 ± STDEV) [nM] | Fold Change [5] | IC50 ([6]; read-out: Avg. IC50 ± STDEV) [nM] | Fold Change [6] | Fold Change [7] | IC50 [7] [nM] | IC50 [8, 17] [nM] | Fold Change ([8]; Wild Type replicon) | Fold Change [9] | IC50 [9] [nM] | sensitivity of replicon [10] | Fold Change [11] | Fold Change [12] | Fold Change [13] | other results |
| --- | --- | --- | --- | --- | --- | --- | --- | --- | --- | --- | --- | --- | --- | --- | --- | --- | --- | --- | --- | --- | --- |
| CCN(CC)C1CCN(C(=O)Cn2c(-c3ccc(Cl)cc3)c(C3CCCCC3)c3ccc(C(=O)O)cc32)CC1 [Formula III] | 700 | 390 ± 65 | 1.2 | 227 ± 64 | 0.7 | 1.3 | 337 ± 45 | 1.1 | 369 ± 66 | 1.2 | 1.0 | 306 ± 10 | 313 ± 32 | 1.0 | 0.9 | 297 ± 66 | – | – | – | – | – |
| O=c1c(C2=NS(=O)(=O)c3ccccc3N2)c(O)c2ccccc2n1NC1CCC1 [Formula II] | 1040 | 450 ± 23 | 1.3 | 360 ± 164 | 1.0 | 1.7 | 564 ± 111 | 1.6 | 571 ± 93 | 1.6 | 0.9 | 326 ± 3 | 347 ± 108 | 1.0 | 0.8 | 264 ± 45 | – | – | – | – | – |
| C[C@@]1(O)[C@H](O)[C@@H](CO)O[C@H]1n1ccc(N)nc1=O [Formula I] | 7210 | 2370 ± 678 | 1.8 | 1590 ± 361 | 1.2 | 2.0 | 1980 ± 388 | 1.5 | 2150 ± 874 | 1.6 | 0.9 | 1270 ± 185 | 1340 ± 473 | 1.0 | 1.0 | 1310 ± 216 | – | – | – | – | – |
| NC(=O)c1ncn([C@@H]2O[C@H](CO)[C@@H](O)[C@H]2O)n1 [Ribavirin, 1-beta-D-ribofuranosyl-1H-1,2,4-triazole-3-carboxamide, reference compound] | – | – | 0.6 | – | 0.6 | 0.7 | – | 0.4 | – | 0.7 | – | – | – | 1.0 | – | – | comparable to the wild-type | 0.6 | 0.7 | 0.6 | IC50 ([2]; read-out: Avg. IC50): 37200 ± 17000 nM; IC50 ([3]; read-out: Avg. IC50): 32900 ± 17800 nM; IC50 [11, 18]: 36400 ± 1300 nM; IC50 [12, 18]: 38900 ± 4700 nM; IC50 [13, 18]: 35800 ± 2200 nM; IC50 [14, 18]: 32400 ± 17700 nM; Fold Change [14]: 0.6; IC50 [15, 18]: 41700 ± 21600 nM; Fold Change [15]: 0.7; IC50 [4, 18]: 40600 ± 6100 nM; IC50 ([5]; read-out: Avg. IC50): 21700 ± 11100 nM; IC50 ([6]; read-out: Avg. IC50): 43100 ± 21300 nM; IC50 ([8]; Ribavirin, Wild Type (mADE) replicon, read-out: Avg. IC50): 57800 ± 17600 nM; sensitivity of replicon [16]: comparable to the wild-type |
| IFN-α | – | – | 1.3 | – | 1.0 | 0.9 | – | 0.3 | – | 0.9 | – | – | – | 1.0 | – | – | comparable to the wild-type | 0.3 | 0.4 | 0.6 | Avg. IC50 ([2]; IFN-α, R155K replicon): 15.2 ± 12.3 units/ml; Avg. IC50 ([3]; IFN-α, V36M replicon): 11.3 ± 5.9 units/ml; Avg. IC50 ([11]; IFN-α, V36M-R155T replicon): 3.1 ± 0.2 units/ml; Avg. IC50 ([12]; IFN-α, R155M replicon): 4.9 ± 1.0 units/ml; Avg. IC50 ([13]; IFN-α, V36A-R155K replicon): 6.8 ± 0.5 units/ml; Avg. IC50 ([14]; IFN-α, R155T replicon): 4.8 ± 3.3 units/ml; Fold Change [14]: 0.4; Avg. IC50 ([15]; IFN-α, V36A-R155T replicon): 3.9 ± 2.1 units/ml; Fold Change [15]: 0.3; Avg. IC50 ([4]; IFN-α, V36M-R155K replicon): 10.1 ± 5.9 units/ml; Avg. IC50 ([5]; IFN-α, T54A replicon): 3.9 ± 0.5 units/ml; Avg. IC50 ([6]; IFN-α, V36A replicon): 10.3 ± 6.0 units/ml; Avg. IC50 ([8]; IFN-α, Wild Type (mADE) replicon): 11.6 ± 1.1 units/ml; sensitivity of replicon [16]: comparable to the wild-type |
